Laboratory results: patent US12440484B2, “1,3,4-oxadiazole homophthalimide derivative compounds as histone deacetylase 6 inhibitor, and the pharmaceutical composition comprising the same” (Chong Kun Dang Pharmaceutical Corp., priority 2019, dated 2025)

Experiments:
HDAC6 human recombinant = HDAC6 human recombinant (Homo sapiens (Human), UniProt Q9UBN7); assay: HDAC enzyme activity inhibition (in vitro), HDAC6 assay; assay type: biochemical; conditions: samples at 0.1, 1, 10, 100 and 1000 nM; 37° C. 60 minutes; fluorescence Ex 390, Em 460
HDAC1 = HDAC1 (Homo sapiens (Human), UniProt Q13547); assay: HDAC enzyme activity inhibition (in vitro), HDAC1 Fluorimetric Drug Discovery Assay Kit; assay type: biochemical; conditions: samples at 100, 1000 and 10000 nM; 37° C. 60 minutes; fluorescence Ex 390, Em 460
HDAC1, sequence (Q13547 whole entry): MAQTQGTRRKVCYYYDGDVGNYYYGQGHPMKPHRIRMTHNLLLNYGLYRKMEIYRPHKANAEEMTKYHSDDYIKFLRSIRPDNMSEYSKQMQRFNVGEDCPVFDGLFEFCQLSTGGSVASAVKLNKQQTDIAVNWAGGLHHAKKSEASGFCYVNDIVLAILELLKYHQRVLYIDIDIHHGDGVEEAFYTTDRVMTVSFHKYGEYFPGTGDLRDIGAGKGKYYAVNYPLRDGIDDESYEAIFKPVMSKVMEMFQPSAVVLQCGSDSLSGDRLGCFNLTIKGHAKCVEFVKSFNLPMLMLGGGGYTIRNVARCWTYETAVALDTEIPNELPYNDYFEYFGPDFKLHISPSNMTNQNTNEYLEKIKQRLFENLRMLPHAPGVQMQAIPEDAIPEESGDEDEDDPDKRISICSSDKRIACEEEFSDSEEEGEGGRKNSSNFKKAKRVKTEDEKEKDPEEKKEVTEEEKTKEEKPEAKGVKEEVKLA

HDAC6 human recombinant, sequence (Q9UBN7 whole entry): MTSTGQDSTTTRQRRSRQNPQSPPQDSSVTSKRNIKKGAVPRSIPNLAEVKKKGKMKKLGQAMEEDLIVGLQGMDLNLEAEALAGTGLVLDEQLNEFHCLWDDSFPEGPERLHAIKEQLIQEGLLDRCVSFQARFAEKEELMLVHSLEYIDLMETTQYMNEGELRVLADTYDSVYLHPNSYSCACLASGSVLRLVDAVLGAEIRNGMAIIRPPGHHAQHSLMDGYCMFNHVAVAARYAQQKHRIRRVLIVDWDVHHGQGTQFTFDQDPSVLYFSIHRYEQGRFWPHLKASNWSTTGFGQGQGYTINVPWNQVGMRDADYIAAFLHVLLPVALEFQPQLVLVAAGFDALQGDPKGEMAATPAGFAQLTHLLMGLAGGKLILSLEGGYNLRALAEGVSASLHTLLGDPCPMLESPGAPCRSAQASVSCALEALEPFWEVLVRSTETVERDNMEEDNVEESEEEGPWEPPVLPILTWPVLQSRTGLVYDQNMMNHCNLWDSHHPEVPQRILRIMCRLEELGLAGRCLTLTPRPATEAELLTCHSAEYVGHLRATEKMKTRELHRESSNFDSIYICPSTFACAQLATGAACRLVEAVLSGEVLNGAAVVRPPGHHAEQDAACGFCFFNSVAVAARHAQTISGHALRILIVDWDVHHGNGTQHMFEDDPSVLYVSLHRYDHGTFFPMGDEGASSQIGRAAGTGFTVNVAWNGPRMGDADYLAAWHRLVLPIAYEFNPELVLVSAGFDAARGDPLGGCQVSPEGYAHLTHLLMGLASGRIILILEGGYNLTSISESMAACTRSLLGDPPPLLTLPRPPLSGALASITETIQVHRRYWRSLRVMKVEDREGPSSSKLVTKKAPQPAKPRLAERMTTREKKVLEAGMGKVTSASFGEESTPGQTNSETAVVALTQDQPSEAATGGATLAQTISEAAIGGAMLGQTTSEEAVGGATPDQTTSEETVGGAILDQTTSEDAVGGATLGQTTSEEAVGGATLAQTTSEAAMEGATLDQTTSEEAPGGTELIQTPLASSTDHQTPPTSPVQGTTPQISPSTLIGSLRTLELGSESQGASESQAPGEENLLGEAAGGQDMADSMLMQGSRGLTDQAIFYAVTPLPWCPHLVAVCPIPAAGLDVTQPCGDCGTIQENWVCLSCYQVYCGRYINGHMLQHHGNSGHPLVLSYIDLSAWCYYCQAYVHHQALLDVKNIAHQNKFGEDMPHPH

IC50 (HDAC6 human recombinant) [nM]	IC50 (HDAC1) [nM]	Structure (SMILES)
77	> 10000	Cc1ccc(-c2ccc3c(c2)C(=O)N(Cc2ccc(-c4nnc(C(F)F)o4)cn2)C(=O)C3(C)C)o1 [Compound 114, 2-((5-(5-(difluoromethyl)-1,3,4-oxadiazole-2-yl)pyridine-2-yl)methyl)-4,4-dimethyl-7-(5-methylfuran-2-yl)isoquinoline-1,3(2H,4H)-dione]
76	> 10000	CC1(C)C(=O)N(Cc2ccc(-c3nnc(C(F)F)o3)cn2)C(=O)c2cc(N3CCN(CC(F)(F)F)CC3)ccc21 [Compound 133, 2-((5-(5-(difluoromethyl)-1,3,4-oxadiazole-2-yl)pyridine-2-yl)methyl)-4,4-dimethyl-7-(4-(2,2,2-trifluoroethyl)piperazine-1-yl)isoquinoline-1,3(2H,4H)-dione]
51	> 10000	CC1(C)C(=O)N(Cc2ccc(-c3nnc(C(F)F)o3)cn2)C(=O)c2ccc(N3CCN(C4CCC(F)(F)CC4)CC3)cc21 [Compound 150, 6-(4-(4,4-difluorocyclohexyl)piperazine-1-yl)-2-((5-(5-(difluoromethyl)-1,3,4-oxadiazole-2-yl)pyridine-2-yl)methyl)-4,4-dimethylisoquinoline-1,3(2H,4H)-dione]
116	> 10000	COc1ccc(-c2cccc3c2C(=O)N(Cc2ccc(-c4nnc(C(F)F)o4)cn2)C(=O)C3(C)C)cn1 [Compound 94, 2-((5-(5-(difluoromethyl)-1,3,4-oxadiazole-2-yl)pyridine-2-yl)methyl)-8-(6-methoxypyridine-3-yl)-4,4-dimethylisoquinoline-1,3(2H,4H)-dione]
